Assay: compartmental model of NEFA trafficking in response to a glucose challenge (frequently sampled intravenous glucose tolerance test, FAs measured by GC-MS)
Type: in vivo
Conditions: greater in IR (p=0.05); mean [95% CI] 55% [14, 76]
Excerpt: In general the present disclosure involves analysis of NEFA trafficking by determining kinetic parameters that include, but are not necessarily limited to, the fractional rate of NEFA appearance (Ra), the rate of NEFA disappearance (kNEFA), threshold for glucose-induced suppression (tG), and IC50 for glucose inhibition of NEFA production (gIC50). Those skilled in the art will recognize that each of these parameters is known and can be determined using a variety of established approaches. In this regard the presence or absence, qualitative and quantitative amounts of, and kinetic parameters for one or more NEFAs in a biological sample can be sample determined using, for example, chromatographic methods, such as column chromatography, including High Performance Liquid Chromatography (HPLC) and gas chromatography, and spectroscopy methods including mass spectrometry, nuclear magnetic resonance spectroscopy, infrared spectroscopy, positron emission tomography and other approaches, such as those described in “A novel minimal model to describe NEFA kinetics following an intravenous glucose challenge” Ray C. Boston, Peter J. Moate, American Journal of Physiology—Regulatory, Integrative and Comparative Physiology Apr 2008, 294 (4) R1140-R1147. […]
This Example reflects an ancillary study. […] Six FAs were measured by GC-MS (myristic, palmitic, palmitoleic, stearic, oleic, and linoleic acids). […]

**Q.** Which “kNEFA in IR versus healthy subjects” value does the source give for `CCCCCCCCCCCCCCCCCC(=O)O` [stearate, stearic acid] here?
**A.** 55%
